Assay results from US20130281497A1, “MACROCYCLIC COMPOUNDS AND METHODS OF TREATMENT” (University of Florida Research Foundation, Inc., priority 2010, published 2013).
Marks after values point to notes of the source that are not given here.

Legend:
[1] = tested on: calvarial bones of mice; test: In vivo murine calvarial bone formation assay
Protocol: In vivo bone-forming activity of largazole was evaluated using lyophilized collagen sponges as described previously. […] Three weeks after drug implantation, the calvarias were harvested, fixed in 4% paraformaldehyde, decalcified in 12% EDTA, embedded in paraffin, and sectioned. Sections were deparaffinized through graded xylene washes, […] in a graded series of ethanol washes, and stained with hematoxylin and eosin (H&E).

[2] = tested on: C2C12 cells; test: mRNA induction of osteoblastogenesis markers and BMPs by quantitative real-time PCR; type: cell-based; details: for ALP mRNA level, fold change relative to the control / BMP-2 mRNA level, fold change relative to the control / BMP-4 mRNA level, fold change relative to the control / BMP-6 mRNA level, fold change relative to the control / BMP-7 mRNA level, fold change relative to the control / BMP-9 mRNA level, fold change relative to the control / OPN mRNA level, fold change relative to the control / RUNX2 mRNA level, fold change relative to the control: 6 days, C2C12 cells, mean ± SD
Protocol: Primers were designed using an on-line primer design program (Table 1). (S. Rozen, H. J. Skaletsky, Methods Mol. Biol. 2000, 132, 365-386.) Total RNA was isolated using TRIzol reagent (Life Technologies, MD) according to manufacturer's protocol. The concentration and purity of total RNA were calculated by measuring absorbance at 260 and 280 nm. First strand cDNA was synthesized using 2 μg of total RNA and 1 μM of oligo-dT18 primer and Omniscript Reverse Transcriptase (Qiagen, CA). SYBR green-based quantitative PCR was performed using the Stratagene Mx3000P Real-Time PCR system and Brilliant SYBR Green Master Mix (Stratagene, CA) with 3 μl of first-strand cDNA diluted 1:50 and 20 pmole of primers, according to the manufacturer's protocols. The PCR reaction consisted of three segments. The first segment (95° C. for 10 min) activated the polymerase; the second segment included 3-step cycling (40 cycles) at 94° C. for 40 sec (denaturation), 60° C. for 40 sec (annealing), and 72° C. for 1 min (extension); the third segment was performed to generate PCR product temperature dissociation curves (‘melting curves’) at 95° C. for 1 min, 55° C. for 30 sec, 95° C. for 30 sec. All reactions were run in triplicate, and data were analyzed by the 2^−ΔΔCT method (K. J. Livak, T. D. Schmittgen, Methods 2001, 25, 402-408.). GAPDH was used as the control gene. Significance was determined by Student's t-test with GAPDH-normalized 2^−ΔΔCT values. Differences were considered significant when P<0.05.

[3] = tested on: calvaria bone; test: In vivo bone regeneration model (calvaria bone defects); set-up: species or system rabbits
Protocol: All rabbits are anesthetized with an intramuscular dose of 0.1 ml/kg Zoletil (Virbac, France). The head is shaved, and the cutaneous surface is disinfected with povidone iod solution prior to the operation. The calvaria bone is exposed through a skin incision of ˜4 cm in length. Four similar circular bicortical defects (3-mm diameter) are made in the parietal bone using a trephine on a slow-speed electric handpiece, applying 0.9% physiologic saline irrigation. Defects are filled with 10 mg of bone graft substitute, MBCP (Biomatlante, France) soaked with 50 μl of PBS or LA-1. Closure of periosteum and subcutaneous tissues is done with lactomer (Syneture), while the skin is relocated with nylon:polyamide (Syneture). Postoperative antibiotics are administered, e.g., Gentamycin. Rabbits are sacrificed at 4 weeks after surgery.

[4] = tested on: RAW264.7 cells; test: Osteoclastogenesis (RANKL-induced TRAP activity, multinucleated osteoclasts); type: cell-based
Protocol: FIG. 2 depicts activity of compound I (LA-1) and compound 8 (LA-3) on osteoclastogenesis. FIG. 2: (A) Effects of test compounds on the RANKL-induced TRAP activity. (B) Effects of test compounds on the RANKL-induced formation of TRAP-positive multinucleated osteoclasts. Effects of test compounds on osteoclast differentiation was evaluated in RAW264.7 cells. RAW264.7 cells were plated in 96-well plates at the density 1×10^3 and then serially diluted LA compounds were treated and incubated until multinucleated osteoclasts were observed under a microscope.
RAW264.7 cells were purchased from the ATCC and maintained in DMEM supplemented with 10% FBS, 100 U/ml of penicillin, and 100 μg/ml streptomycin with a change of medium every 3 days in humidified atmosphere of 5% CO2 in air at 37° C. For the osteoclast differentiation, RAW264.7 cells were suspended in α-minimal essential medium (α-MEM) supplemented with 10% FBS and 100 ng/ml RANKL (R&D Systems Inc., MN) and plated in a 96-well plate at 1×10^3 cells/well. The next day, cells were treated with largazole and then after an additional 3 days, multinucleated osteoclasts were observed.
Multinucleated osteoclasts were fixed with 10% formalin for 10 min and ethanol/acetone (1:1) for 1 min, and then stained by Leukocyte Acid Phosphatase Kit 387-A (Sigma, Mo.). […] Absorbance was measured at 410 nm, and TRAP activity was presented as % of control. […]

[5] = tested on: Runx2; test: Runx2 luciferase reporter assay (p6xOSE2-luc); type: cell-based
Protocol: FIG. 1. depicts activity of compound I (LA-1) and compound 8 (LA-3) on osteoblast differentiation. FIG. 1: (A) The effects of test compounds (up to 500 nM) on osteoblast differentiation were evaluated by ALP staining. (B) The effect of test compounds (up to 50 nM) on osteoblast differentiation were evaluated by ALP staining. MS-275 was used as a positive control. The effects of test compounds on cell viability (C) and RUNX2 activity (D) were evaluated by CCK-8 assay and 6×OSE2-luciferase activity assay, respectively.
To measure Runx2 activity, p6×osteoblast-specific cis-acting element (OSE) 2-luc reporter vector was transiently transfected into C2C12 cells that were seeded in a 96-well plate at 5×10^3 cells/well as described previously (Kim et al., J. Cell Biochem. 2004, 9, 1239-1247). After 24 h, medium was replaced with DMEM containing 5% FBS with or without tanshinone IIA and/or BMP-2. After 24 h, the cells were lysed, and luciferase activity was measured using luciferase reporter assay system (Promega) and the Wallac EnVision microplate reader.

CCCCCCCC(=O)SCC/C=C/[C@@H]1CC(=O)NCc2nc(cs2)C2=N[C@@](C)(CS2)C(=O)N[C@@H](C(C)C)C(=O)O1 [Largazole, largazole]
woven bone formation at lower (50 μM) versus higher (100 μM) concentration ([1]; 50 μM compared with 100 μM, collagen sponge implant): more significant than that at the higher concentration
woven bone formation over the periosteum of the calvarial bones ([1]; collagen sponges soaked with largazole implanted, three weeks): induced woven bone formation
ALP mRNA level, fold change relative to the control ([2]; largazole 1 nM): 1.85 ± 0.06^a fold
BMP-2 mRNA level, fold change relative to the control ([2]; largazole 1 nM): 2.15 ± 0.42^b fold
BMP-4 mRNA level, fold change relative to the control ([2]; largazole 1 nM): 0.91 ± 0.22 fold
BMP-6 mRNA level, fold change relative to the control ([2]; largazole 1 nM): 1.69 ± 0.12^b fold
BMP-7 mRNA level, fold change relative to the control ([2]; largazole 1 nM): 5.05 ± 0.31^c fold
BMP-9 mRNA level, fold change relative to the control ([2]; largazole 1 nM): 5.18 ± 0.74^c fold
OPN mRNA level, fold change relative to the control ([2]; largazole 1 nM): 1.33 ± 0.19 fold
RUNX2 mRNA level, fold change relative to the control ([2]; largazole 1 nM): 2.47 ± 0.39^b fold
ALP mRNA level, fold change relative to the control ([2]; largazole 50 nM): 324.04 ± 1.59^c fold
BMP-2 mRNA level, fold change relative to the control ([2]; largazole 50 nM): 6.29 ± 0.98^c fold
BMP-4 mRNA level, fold change relative to the control ([2]; largazole 50 nM): 2.38 ± 0.91^a fold
BMP-6 mRNA level, fold change relative to the control ([2]; largazole 50 nM): 7.15 ± 1.33^b fold
BMP-7 mRNA level, fold change relative to the control ([2]; largazole 50 nM): 17.12 ± 2.59^c fold
BMP-9 mRNA level, fold change relative to the control ([2]; largazole 50 nM): 12.14 ± 3.17^b fold
OPN mRNA level, fold change relative to the control ([2]; largazole 50 nM): 2.28 ± 0.12^b fold
RUNX2 mRNA level, fold change relative to the control ([2]; largazole 50 nM): 3.66 ± 1.19^a fold
ALP mRNA level, fold change relative to the control ([2]; largazole 100 nM): 263.33 ± 11.61^b fold
BMP-2 mRNA level, fold change relative to the control ([2]; largazole 100 nM): 6.34 ± 1.16^b fold
BMP-4 mRNA level, fold change relative to the control ([2]; largazole 100 nM): 3.48 ± 1.63 fold
BMP-6 mRNA level, fold change relative to the control ([2]; largazole 100 nM): 8.37 ± 0.88^c fold
BMP-7 mRNA level, fold change relative to the control ([2]; largazole 100 nM): 10.72 ± 1.90^c fold
BMP-9 mRNA level, fold change relative to the control ([2]; largazole 100 nM): 10.18 ± 2.22^b fold
OPN mRNA level, fold change relative to the control ([2]; largazole 100 nM): 0.83 ± 0.04^a fold
RUNX2 mRNA level, fold change relative to the control ([2]; largazole 100 nM): 2.06 ± 0.00^c fold
increase of Runx2 mRNA level relative to the DMSO control ([2]; largazole at 50 nM, real-time PCR): 3 fold
mRNA expression levels of BMPs (BMP-2, 4, 6, 7, and 9) ([2]; real-time PCR): significantly induced
anabolic bone forming activity in vivo [3]: exhibited anabolic bone forming activity
inhibition of osteoclastogenesis [4]: potential to inhibit the osteoclastogenesis
activity of RUNX2 (6×OSE2-luciferase activity assay) ([5]; FIG. 1D): strongly induced the activity of RUNX2
increase of Runx2 activity relative to the DMSO control ([5]; largazole at 50 nM, p6×OSE2-luciferase reporter): 29 fold
